{"source": "paper PMC4242290", "about": "(Nuclear Receptor Signaling, 2014)", "key": {"His6-hERβ LBD": {"target": "His6-hERβ LBD (Homo sapiens, UniProt Q92731)", "sequence (Q92731 261-530)": "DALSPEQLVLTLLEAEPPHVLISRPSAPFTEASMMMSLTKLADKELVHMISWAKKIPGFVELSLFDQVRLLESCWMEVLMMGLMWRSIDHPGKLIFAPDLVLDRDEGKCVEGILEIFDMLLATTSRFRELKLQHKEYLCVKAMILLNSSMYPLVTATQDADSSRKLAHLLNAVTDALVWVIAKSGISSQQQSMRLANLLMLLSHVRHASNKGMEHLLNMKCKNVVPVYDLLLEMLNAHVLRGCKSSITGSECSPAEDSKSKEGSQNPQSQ", "assay_type": "binding", "conditions": "for DSF primary screen: change in melting temperature of ERβ LBD: 500 µM"}, "[1]": {"conditions": "Phase II double-blind clinical trial; cited from earlier work"}, "LNCaP cells": {"test_system": "LNCaP cells", "test": "LNCaP cell proliferation", "assay_type": "cell-based", "conditions": "1 μM final concentration, 24 h treatment"}, "ERα [2]": {"target": "T1, ERα (Homo sapiens, UniProt P03372)", "T1 sequence (P03372 1-595)": "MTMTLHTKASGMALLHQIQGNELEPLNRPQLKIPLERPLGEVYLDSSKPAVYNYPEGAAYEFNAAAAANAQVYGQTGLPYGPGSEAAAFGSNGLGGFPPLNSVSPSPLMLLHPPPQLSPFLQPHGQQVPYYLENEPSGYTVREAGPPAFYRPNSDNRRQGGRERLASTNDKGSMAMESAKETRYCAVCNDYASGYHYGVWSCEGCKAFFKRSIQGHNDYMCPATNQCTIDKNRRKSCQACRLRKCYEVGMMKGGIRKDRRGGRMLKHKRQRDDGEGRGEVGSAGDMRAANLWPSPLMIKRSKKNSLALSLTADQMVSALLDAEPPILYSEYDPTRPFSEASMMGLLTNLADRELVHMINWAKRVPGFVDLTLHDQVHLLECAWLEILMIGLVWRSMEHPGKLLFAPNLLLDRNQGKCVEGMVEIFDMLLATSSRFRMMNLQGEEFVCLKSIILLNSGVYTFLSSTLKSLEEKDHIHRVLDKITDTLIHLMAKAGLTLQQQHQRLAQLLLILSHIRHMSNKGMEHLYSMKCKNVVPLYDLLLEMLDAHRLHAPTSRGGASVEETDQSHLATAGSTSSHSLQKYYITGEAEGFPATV", "assay_type": "binding"}, "ERβ [3]": {"target": "T2, ERβ (Homo sapiens, UniProt Q92731)", "T2 sequence (Q92731 whole entry)": "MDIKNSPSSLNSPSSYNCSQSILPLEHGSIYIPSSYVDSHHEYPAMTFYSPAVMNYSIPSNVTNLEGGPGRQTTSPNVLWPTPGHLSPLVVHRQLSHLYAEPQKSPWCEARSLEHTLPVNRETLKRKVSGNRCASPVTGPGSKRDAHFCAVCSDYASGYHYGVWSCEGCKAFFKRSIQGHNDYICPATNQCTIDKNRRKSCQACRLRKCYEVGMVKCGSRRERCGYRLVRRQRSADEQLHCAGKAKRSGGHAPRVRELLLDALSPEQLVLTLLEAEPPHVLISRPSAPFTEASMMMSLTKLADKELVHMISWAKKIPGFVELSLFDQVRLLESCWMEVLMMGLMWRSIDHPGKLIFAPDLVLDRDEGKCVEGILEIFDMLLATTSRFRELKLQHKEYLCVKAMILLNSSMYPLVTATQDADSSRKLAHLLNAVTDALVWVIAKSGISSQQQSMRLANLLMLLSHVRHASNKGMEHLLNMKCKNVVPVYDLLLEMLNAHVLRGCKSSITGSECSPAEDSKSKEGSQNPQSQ", "conditions": "radioligand binding assay; cited from earlier work"}, "full length ERβ": {"target": "full length ERβ (Homo sapiens, UniProt Q92731)", "sequence (Q92731 whole entry)": "as above", "test": "ERE-luciferase transactivation in HeLa cells, full length ERβ", "assay_type": "cell-based"}, "ERβ [4]": {"target": "T2, ERβ", "assay_type": "binding", "conditions": "for β-selectivity (fold): IC50 for ERα divided by IC50 for ERβ, from FP"}, "ERβ [5]": {"target": "T2, ERβ", "conditions": "transiently transfected MCF-7 cells; cited from earlier work"}, "ERα [6]": {"target": "T1, ERα", "conditions": "transiently transfected MCF-7 cells; cited from earlier work"}, "GAL4 DBD-ERβ LBD": {"target": "GAL4 DBD-ERβ LBD (Homo sapiens, UniProt Q92731)", "sequence (Q92731 264-498 limits assumed)": "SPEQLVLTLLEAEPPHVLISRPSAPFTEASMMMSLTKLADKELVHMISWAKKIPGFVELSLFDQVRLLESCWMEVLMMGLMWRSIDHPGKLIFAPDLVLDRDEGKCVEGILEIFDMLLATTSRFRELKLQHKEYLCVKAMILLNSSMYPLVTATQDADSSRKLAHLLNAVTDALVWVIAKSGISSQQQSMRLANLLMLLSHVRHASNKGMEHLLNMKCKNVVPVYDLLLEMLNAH", "test": "GAL4 transactivation assay in HEK293T cells", "assay_type": "cell-based"}, "ERβ [7]": {"target": "T2, ERβ", "conditions": "cited from earlier work"}}, "note": "Entries after “also recorded” stand apart in the source; their conditions may differ. Where a name gives a salt, the structure may show the parent alone. *1 amine or outer side, *2 acyl side, *3 side chain or, on linkers, in order; H or OH if unused. Where a SMILES comes first, the peptide text is derived from it. Bridges are numbered along the chain shown (N, C = ends). Roman numbers before positions name the chains, in order. [ ]: non-standard residue; d: D form. Actinocin(9to1) = Cc1c2oc3c(C)ccc(C(=O)[*:1])c3nc-2c(C(=O)[*:2])c(N)c1=O; NMeV = CN[C@H](C(=O)O)C(C)C; Sar = CNCC(=O)O"}
{"compound": "Cc1c2oc3c(C)ccc(C(=O)N[C@@H]4C(=O)N[C@H](C(C)C)C(=O)N5CCC[C@H]5C(=O)N(C)CC(=O)N(C)[C@@H](C(C)C)C(=O)O[C@@H]4C)c3nc-2c(C(=O)N[C@@H]2C(=O)N[C@H](C(C)C)C(=O)N3CCC[C@H]3C(=O)N(C)CC(=O)N(C)[C@@H](C(C)C)C(=O)O[C@@H]2C)c(N)c1=O", "note": "[dactinomycin] (I: T[dV]P[Sar][NMeV] / II: T[dV]P[Sar][NMeV]; ester I:1-I:C, II:1-II:C; linker I:N-II:N via Actinocin(9to1))", "values": [{"measurement": "DSF primary screen: change in melting temperature of ERβ LBD", "setting": "His6-hERβ LBD", "result": "elicited changes in the protein melting temperature"}]}
{"compound": "C=Cc1cc(O)cc2nc(-c3ccc(O)c(F)c3)oc12", "note": "[ERB-041]", "values": [{"measurement": "Efficacy in rheumatoid arthritis", "setting": "[1]", "result": "failed to demonstrate efficacy"}]}
{"compound": "C[C@]12CC[C@H](O)CC1=CC[C@@H]1[C@@H]2CC[C@]2(C)C(=O)CC[C@@H]12", "note": "[DHEA, dehydroepiandrosterone]", "values": [{"measurement": "LNCaP cell proliferation (cell viability)", "setting": "LNCaP cells", "result": "Suppression of proliferation"}, {"measurement": "Binding to ERα in FP (competition with fluorescein labeled E2), result in words", "setting": "ERα [2]", "result": "binders"}, {"measurement": "Ki for ERβ compared with ERα", "setting": "ERβ [3]", "result": "lower for ERβ than ERα"}, {"measurement": "Relative transactivation activity, full length ERβ", "setting": "full length ERβ; 1 μM final concentration", "result": "greater capacity for ERβ activation than the selective partial agonist 27-hydroxycholesterol"}, {"measurement": "ER subtype selectivity of transactivation (ERβ versus ERα)", "setting": "full length ERβ; full length ERs, 1 μM", "result": "strong ERβ selectivity"}, {"measurement": "Tm of His6-hERβ LBD purification product", "setting": "His6-hERβ LBD", "result": "~ 55 ºC"}, {"measurement": "DSF primary screen: change in melting temperature of ERβ LBD", "setting": "His6-hERβ LBD", "result": "putative binders"}, {"measurement": "Binding to ERβ in FP (competition with fluorescein labeled E2), result in words", "setting": "ERβ [4]", "result": "binders"}, {"measurement": "β-selectivity (fold)", "setting": "ERβ [4]", "result": "greater than 2 fold"}]}
{"compound": "goserelin acetate", "values": [{"measurement": "DSF primary screen: change in melting temperature of ERβ LBD", "setting": "His6-hERβ LBD", "result": "elicited changes in the protein melting temperature"}]}
{"compound": "medicarpin", "values": [{"measurement": "β-selectivity (fold)", "setting": "ERβ [4]", "result": "greater than 2 fold"}]}
{"compound": "O=c1cc(-c2ccc(O)c(O)c2)oc2cc(O)cc(O)c12", "note": "[luteolin]", "values": [{"measurement": "Activation of ERβ", "setting": "ERβ [5]", "result": "very slight effect on ERβ"}, {"measurement": "Activation of ERα", "setting": "ERα [6]", "result": "no effect on ERα"}, {"measurement": "β-selectivity (fold)", "setting": "ERβ [4]", "result": "greater than 2 fold"}]}
{"compound": "C[C@H]1CCC[C@H](O)CCCCCc2cc(O)cc(O)c2C(=O)O1", "note": "[zeranol]", "values": [{"measurement": "Binding to ERα in FP (competition with fluorescein labeled E2), result in words", "setting": "ERα [2]", "result": "binders"}]}
{"compound": "C[C@]12CC[C@@H]3c4ccc(O)cc4CC[C@H]3[C@@H]1C[C@@H](O)[C@@H]2O", "note": "[estriol]", "values": [{"measurement": "Binding to ERβ in FP (competition with fluorescein labeled E2), result in words", "setting": "ERβ [4]", "result": "binders; also recorded: greater relative affinity than estrone"}]}
{"compound": "CC/C(=C(/CC)c1ccc(O)cc1)c1ccc(O)cc1", "note": "[diethylstilbestrol, reference compound]", "values": [{"measurement": "Binding to ERβ in FP (competition with fluorescein labeled E2), result in words", "setting": "ERβ [4]", "result": "binders"}]}
{"compound": "O=C1C[C@@H](c2ccc(O)cc2)Oc2cc(O)cc(O)c21", "note": "[naringenin]", "values": [{"measurement": "DSF primary screen: change in melting temperature of ERβ LBD", "setting": "His6-hERβ LBD", "result": "putative binders"}, {"measurement": "β-selectivity (fold)", "setting": "ERβ [4]", "result": "greater than 2 fold"}]}
{"compound": "CC[C@]1(O)CC[C@H]2[C@@H]3CCC4=CCCC[C@@H]4[C@H]3CC[C@@]21C", "note": "[ethylestrenol]", "values": [{"measurement": "DSF primary screen: change in melting temperature of ERβ LBD", "setting": "His6-hERβ LBD", "result": "putative binders"}]}
{"compound": "C[C@@H](CO)CCC[C@@H](C)[C@H]1CC[C@H]2[C@@H]3CC=C4C[C@@H](O)CC[C@]4(C)[C@H]3CC[C@]12C", "note": "[27-hydroxycholesterol, reference compound]", "values": [{"measurement": "LNCaP cell proliferation (cell viability)", "setting": "LNCaP cells", "result": "Suppression of proliferation"}]}
{"compound": "C[C@]12CC[C@H]3C(=CCc4cc(O)ccc43)[C@@H]1CCC2=O", "note": "[equilin]", "values": [{"measurement": "DSF primary screen: change in melting temperature of ERβ LBD", "setting": "His6-hERβ LBD", "result": "putative binders"}]}
{"compound": "CCCCCC[C@H]1C(=O)O[C@H](C)[C@H](NC(=O)c2cccc(NC=O)c2O)C(=O)O[C@@H](C)[C@@H]1OC(=O)CC(C)C", "note": "[antimycin A]", "values": [{"measurement": "DSF primary screen: change in melting temperature of ERβ LBD", "setting": "His6-hERβ LBD", "result": "elicited changes in the protein melting temperature"}]}
{"compound": "CCN(CC)CCOc1ccc(C(=C(Cl)c2ccccc2)c2ccccc2)cc1", "note": "[clomiphene citrate]", "values": [{"measurement": "DSF primary screen: change in melting temperature of ERβ LBD", "setting": "His6-hERβ LBD", "result": "putative binders"}, {"measurement": "IC50", "setting": "GAL4 DBD-ERβ LBD", "result": 221, "unit": "nM"}, {"measurement": "Binding to ERβ in FP (competition with fluorescein labeled E2), result in words", "setting": "ERβ [4]", "result": "binders"}]}
{"compound": "C[C@@H]1[C@H](O)[C@@H](C)/C=C/C=C/CC/C=C/C=C/C=C/C=C/C(O[C@H]2O[C@H](C)[C@@H](O)[C@H](N)[C@@H]2O)CC2O[C@](O)(CC(O)C(O)CCC(O)CC(O)CC(O)CC(=O)O[C@H]1C)CC(O)C2C(=O)O", "note": "(some centres unmarked) [nystatin]", "values": [{"measurement": "DSF primary screen: change in melting temperature of ERβ LBD", "setting": "His6-hERβ LBD", "result": "elicited changes in the protein melting temperature"}]}
{"compound": "C[C@]12CC[C@H]3[C@@H](CC=C4C[C@@H](O)CC[C@@]43C)[C@@H]1CC[C@@H]2O", "note": "[5-androstenediol]", "values": [{"measurement": "ER subtype selectivity", "setting": "ERβ [7]", "result": "ERβ selective"}]}
{"compound": "COc1cc(/C=C/c2ccc(O)cc2)cc(OC)c1", "note": "[pterostilbene]", "values": [{"measurement": "DSF primary screen: change in melting temperature of ERβ LBD", "setting": "His6-hERβ LBD", "result": "putative binders"}]}
{"compound": "CC[C@H](c1ccc(O)cc1)[C@@H](CC)c1ccc(O)cc1", "note": "[hexestrol, reference compound]", "values": [{"measurement": "Binding to ERα in FP (competition with fluorescein labeled E2), result in words", "setting": "ERα [2]", "result": "binders"}, {"measurement": "Ki for ERβ compared with ERα", "setting": "ERβ [3]", "result": "the same for both isoforms"}, {"measurement": "DSF primary screen: change in melting temperature of ERβ LBD", "setting": "His6-hERβ LBD", "result": "putative binders"}, {"measurement": "Binding to ERβ in FP (competition with fluorescein labeled E2), result in words", "setting": "ERβ [4]", "result": "binders"}]}
{"compound": "CCOC(=O)C1=C(C)NC(C)=C(C(=O)OC)C1c1cccc(Cl)c1Cl", "note": "(centres unmarked) [felodipine]", "values": [{"measurement": "DSF primary screen: change in melting temperature of ERβ LBD", "setting": "His6-hERβ LBD", "result": "showed up as hits in the primary assay"}]}
{"compound": "C#C[C@]1(O)CC[C@H]2[C@@H]3CCc4cc(O)ccc4[C@H]3CC[C@@]21C", "note": "[ethinyl estradiol]", "values": [{"measurement": "DSF primary screen: change in melting temperature of ERβ LBD", "setting": "His6-hERβ LBD", "result": "putative binders"}]}
{"compound": "c1ccc2c(Cc3c[nH]c4ccccc34)c[nH]c2c1", "note": "[3,3’-diindolylmethane]", "values": [{"measurement": "Selectivity of binding to ERβ", "setting": "ERβ [7]", "result": "did not bind selectively to ERβ"}]}
